Key:
[1] = system: LNCaP-JAK1 cells; assay: Trypan blue exclusion assay of LNCaP-JAK1 cells; assay type: cell-based, human
Experimental: Graph depicts mean±SE (n=5) of the percentage of trypan blue permeable cells with and without IFNα. **p<0.005.
Graph depicts mean±SE (n=10).**p<0.005; ns, non-significant.
In the presence of Q-VD-OPh (throughout pre-treatment and infection). **p<0.01.
The indicated cells were treated and infected as in FIG. 9B, and the percentage of dead cells was determined by trypan blue exclusion assay. Graph depicts mean±SE of the percentage of dead cells with and without IFNγ (n=3). **p<0.005; ns (non-significant).
Trypan blue exclusion assay—2×10^5 LNCaP cells/well in a 12-well plate were infected, or not, under the indicated experimental conditions. For each well, detached and attached cells were collected together and mixed with 0.5% trypan blue at a 1:1 ratio. Cells were classified by trypan blue exclusion by light microscopy. Trypan blue (0.5%) was from Beit Haemek Biological Industries, Israel (cat. #03-102-1B).

[2] = system: LNCaP cells; assay: Preliminary experiments, toxicity of TSA to LNCaP cells; assay type: cell-based, human; conditions: longer incubation periods (84 to 96 hours)
[3] = system: LNCaP-JAK1 cells; assay: SILAC proteome analysis of LNCaP-JAK1 cells; conditions: for number of ISGs upregulated (of 50 ISGs): LNCaP-JAK1, cytokine treatment alone
Experimental: Stable Isotope Labeling by Amino Acids Analysis (S/LAC)—LNCaP and LNCaP-JAK1 cells were grown in RPMI devoid of lysine and arginine (Thermo, Cat. #A2494401), supplemented with 10% dialyzed FCS (Biological Industries, cat. #04-011-1A) and antibiotics for ten cell divisions (^˜3 weeks). “Heavy” culture medium was supplemented with ^13C6^15N2-lysine (146 mg/ml, cat. #CNLM-291-H) and ^13C6^15N4-arginine (84 mg/ml cat. #CNLM-539-H) both from Cambridge Isotope Laboratories. “Light” labeled culture medium was supplemented with unmodified lysine and arginine at the same concentrations. To avoid potential bias in the analysis, in any given condition, cultures were labeled with heavy (H) or light (L) amino acids; or with the reciprocal labeling. Each H-L pair was repeated twice. Thus, quantification of each condition was based on four independent replicates. Labeled cells, either treated or untreated, were trypsinized, counted, and washed twice in cold PBS. Samples were digested by trypsin and analyzed by Liquid chromatography tandem-mass spectrometry (LC-MS/MS) on Q Exactive hybrid quadrupole-Orbitrap mass spectrometer (Thermo Scientific). The data were analyzed and quantified with MaxQuant 1.5.2.8, using the human Uniprot database. Proteins were identified with false discovery rate (FDR)<0.01.

[4] = system: LNCaP-JAK1 cells; assay: Cell cycle analysis (sub-G1, PI, FACS) of LNCaP-JAK1 cells; assay type: cell-based, human; conditions: LNCaP-JAK1, IL-6 treatment
Experimental: RPMI (supplemented with 10% FCS, 10 ml) was added post-fixation, after which cells were pelleted, washed twice with cold PBS and re-suspended in PBS supplemented with RNase A (20 μg/ml, 30 minutes). Following additional pelleting, cells were re-suspended in Propidium Iodide (P1) solution (50 μg/ml in PBS) and analyzed by FACS (Becton Dickinson).

[5] = system: LNCaP cells; assay: SILAC proteome analysis of LNCaP cells; conditions: IL-6 5 ng/ml for 16 hours
[6] = system: LNCaP cells; assay type: cell-based, human
[7] = system: DU145 cells; assay: IFNα-mediated STAT1 phosphorylation in DU145 cells (immunoblot); assay type: cell-based, human
[8] = system: LNCaP cells; assay: IFNα-mediated STAT1 phosphorylation in LNCaP cells (immunoblot); assay type: cell-based, human
[9] = system: DU145 cells; assay: Virus-induced death of DU145 cells with IFN; assay type: cell-based, human; conditions: DU145, IFN alone
[10] = system: LNCaP-JAK1 cells; assay: IFNα-induced pSTAT1 in LNCaP-JAK1 cells (immunoblot); assay type: cell-based, human; conditions: LNCaP-JAK1, 200 U/ml for 2 hours
[11] = system: LNCaP-JAK1 cells; assay type: cell-based, human
[12] = system: DU145 cells; assay: Immunofluorescence of NS3-positive infected DU145 cells with or without IFNα; assay type: cell-based, human; conditions: DU145, IFNα 200 U/ml for 45 hours
Experimental: (§1) Quantification of percentage NS3 positive cells was from multiple (n=5) randomly selected fields, imaged under the same conditions as in FIG. 4D; *p<0.05.
(§2) Immunofluorescence—DU145 or LNCaP cells were seeded (5×10^4 cells/well) onto glass coverslips placed in a 24-well plate, and were infected, or not, with EHDV-TAU-LNCaP, in the presence or absence of IFNα. At 44 hours post infection (hpi) or 2 hours (for IFNα treatment), cells were washed twice with cold PBS (4° C.), fixed (4% paraformaldehyde for 20 minutes), blocked and permeabilized (PBS 1%/BSA 0.1%/Triton 0.1% (PBS/BSA/T) for 30 minutes), and stained with polyclonal anti-NS3 (1:300 dilution in PBS/BSA/T). Alexa-488 or 555-conjugated goat-anti-rabbit antibodies (1:200 dilution in PBS/BSA/T) were used as secondary antibodies. In order to detect nuclear phosphorylated STAT1, cells were fixed (4% paraformaldehyde for 20 minutes) and permeabilized with ice-cold methanol (10 minutes at −20° C.). Cells were stained with Rabbit-anti phospho-Tyr701-STAT1 (1:100 dilution in PBS/BSA/T) for overnight at 4° C. Mounting was with Fluorescence Mounting Medium (Golden Bridge, Mukilteo, Wash., USA, cat. #E1818).

[13] = system: LNCaP cells; assay: Immunofluorescence of NS3-positive infected LNCaP cells with or without IFNα; assay type: cell-based, human; conditions: IFNα 200 U/ml for 45 hours
Experimental: as §1, §2

[14] = system: LNCaP-JAK1 cells; assay: qRT-PCR of IFIT5 and IRF7 in LNCaP-JAK1 cells after IFNα; assay type: cell-based, human; conditions: LNCaP-JAK1, IFNα 200 U/ml for 24 hours
Experimental: The average expression level of untreated cells was taken as 1. *p<0.05.
qRT-PCR—Total RNA was extracted from cells using EZ-RNA kit (Biological Industries, Israel, cat. #20-400-100) according to the manufacturer's instructions. First-strand cDNA synthesis was performed using the iScript cDNA Synthesis Kit (Bio Rad cat. #1708890) according to the manufacturer's instructions, with additional no-RNA control. Real-Time PCR analyses of mRNA levels of the genes of interest, relative to GAPDH mRNA levels were performed in triplicates, using Fast SYBR-green master mix (Applied Biosystems, cat. #4385612) with StepOnePlus Real-Time PCR System (Applied Biosystems, cat. #4376600). Primers were designed to span exon-exon junctions and to produce 80-140 bp amplicons. Gene expression values were calculated based on the comparative threshold cycle method.

[15] = system: LNCaP-JAK1 cells; assay: Immunoblot of STAT1 and STAT3 phosphorylation after IFNγ in LNCaP-JAK1 cells; assay type: cell-based, human; conditions: LNCaP-JAK1, IFNγ 25 ng/ml for 20 minutes
Experimental: LNCaP and LNCaP-JAK1 cells were exposed to 25 ng/ml of IFNγ for 20 minutes.

Molecule: COC(=O)CC(NC(=O)C(NC(=O)c1ccc2ccccc2n1)C(C)C)C(=O)COc1c(F)cccc1F (stereo not shown) [Q-VD-OPh, Quinolyl-valyl-O-methylaspartyl-[-2,6-difluorophenoxy]-methyl ketone, reference compound]
- effect of caspase inhibition on death of infected cells ([1]; LNCaP-JAK1, Q-VD-OPh 20 μM, regardless of the presence of IL-6): to basal levels

Molecule: CC(/C=C/C(=O)NO)=C\[C@@H](C)C(=O)c1ccc(N(C)C)cc1 [TSA, trichostatin A]
- toxicity to LNCaP cells [2]: toxic

Molecule: IL-6: Human IL-6 (PeproTech), pleiotropic cytokine
- number of ISGs upregulated (of 50 ISGs) [3]: 16
- percentage of cells exhibiting sub-G1 DNA content [4]: slight increase
- number of ISGs upregulated (of 50 ISGs) [5]: 3

Molecule: IFNα
- activation of ISRE luciferase reporter [6]: 1.2±0.1 fold
- number of ISGs upregulated (of 50 ISGs) [3]: 17
- enrichment of ISGs in IFNα-induced proteome changes ([3]; LNCaP-JAK1 compared to parental LNCaP cells): 24.4%
- STAT1 phosphorylation in response to IFNα ([7]; DU145, 200 U/ml for 4 hours): robust STAT1 phosphorylation
- increase in pSTAT1 levels ([7]; DU145, 30 minutes post stimulation with 200 U/ml IFNα): 18±11 fold
- effect on EHDV-TAU-LNCaP-induced cell death ([1]; LNCaP-JAK1, IFNα 200 U/ml): protection from EHDV-TAU-LNCaP-induced cell death was observed
- pSTAT1 in response to IFNα ([8]; 200 U/ml for 4 hours): only residual pSTAT1 levels
- increase in pSTAT1 levels ([8]; 30 minutes post stimulation with 200 U/ml IFNα): 4.2±2.5 fold
- protection from virus-induced death [9]: significantly protect
- pSTAT1 levels upon IFNα stimulation [10]: dramatic increases in pSTAT1 levels
- effect on production of infectious virions [11]: inhibited production of infectious virions
- effect of IFNα on NS3 signal of EHDV-TAU-LNCaP-infected cultures [12]: abrogated the NS3 signal
- effect of IFNα on EHDV-TAU-LNCaP infection [13]: negligible effects
- expression of IFIT5 and IRF7 [14]: marked induction

B1: IFNγ: human IFNγ (PeproTech) (protein, UniProt P01579 24-161, looked up)
Interferon gamma: QDPYVKEAENLKKYFNAGHSDVADNGTLFLGILKNWKEESDRKIMQSQIVSFYFKLFKNFKDDQSIQKSVETIKEDMNVKFFNSNKKKRDDFEKLTNYSVTDLNVQRKAIHELIQVMAELSPAAKTGKRKRSQMLFRG
- number of ISGs induced ([3]; LNCaP-JAK1, IFNγ 25 ng/ml, 14 hours): 35
- effect on death of infected cells ([1]; LNCaP-JAK1, IFNγ 25 ng/ml): supported oncolysis by non-productive viral infection
- STAT activation [15]: activated STAT1 (but not STAT3)
